Results as given in US8592426B2, “Aryl-benzocycloalkyl amide derivatives” (Hoffmann—La Roche Inc., priority 2011, dated 2013).

Tests used:
Bradykinin-1 receptor [1] = biological target: T1, Bradykinin-1 receptor (Homo sapiens (Human), UniProt P46663); test: Receptor binding assay (B1R Binding Assay), [3H]-Kallidin (Des Arg10, Leu9) displacement; details: membranes from CHO-K1 cells overexpressing Bradykinin-1 receptor; 6 nM radioligand
Description: Binding assays were done with membranes from CHO-K1 cells overexpressing Bradykinin-1 receptor.
To determine non-specific binding 10 μM Lys-(Des-Arg^9)-Bradykinin (Bachem) was added. Membranes were harvested through GF/B (glass fiber filter; PerkinElmer) plates, equilibrated with 0.5% polyethylenimine, air dried at 50° C. for 2 h. Radioactivity was determined by counting in a topcounter (NXT Packard).

Bradykinin-1 receptor [2] = biological target: T1, Bradykinin-1 receptor; test: Calcium mobilization assay (FLIPR, Fluo-4) in GeneBLAzer Bradykinin (B1)-NFAT-bla CHO-K1 cells; format: cell-based; details: antagonist activity; CHO-K1 cells stably overexpressing the human bradykinin 1 receptor; read-out: Ca mobilization Assay IC50
Description: Calcium Mobilization Assay
GeneBLAzer® Bradykinin (B1)-NFAT-bla CHO-K1 cells (from Invitrogen) stably overexpressing the human bradykinin 1 receptor were cultured in DMEM (high glucose) supplemented with 10% dialysed FBS, 1% NEAA (non essential amino acids) 1% penicillin/streptomycin, 1% G418 and 0.1 mg/ml zeocin.
For the assay cells were grown overnight in 384-well black clear flat bottom polystyrene plates (Costar) at 37° C. at 5% CO2. After washing with DMEM, 20 mM Hepes, 2.5 mM probenecid, 0.1% BSA (DMEM assay buffer) cells were loaded with 4 μM Fluo-4 in the same DMEM assay buffer for 2 hours at 30° C. Excess dye was removed and cells were washed with DMEM assay buffer. 384-well compound plates were prepared with DMEM assay buffer/0.5% DMSO with or without various concentrations of test compounds. Usually compounds were tested for agonist and antagonist activity.
Test compounds were added to the assay plate and agonist activity was monitored as fluorescence for 80 seconds with a FLIPR (488 nm excitation; 510-570 nm emission; Molecular Devices). After 20-30 min. of incubation at 30° C., 20 nM […] (R&D; Roche) was added and fluorescence was monitored again for 80 seconds. Increases in intracellular calcium are reported as maximum fluorescence after agonist exposure minus basal fluorescence before exposure.

T1 sequence (P46663 whole entry): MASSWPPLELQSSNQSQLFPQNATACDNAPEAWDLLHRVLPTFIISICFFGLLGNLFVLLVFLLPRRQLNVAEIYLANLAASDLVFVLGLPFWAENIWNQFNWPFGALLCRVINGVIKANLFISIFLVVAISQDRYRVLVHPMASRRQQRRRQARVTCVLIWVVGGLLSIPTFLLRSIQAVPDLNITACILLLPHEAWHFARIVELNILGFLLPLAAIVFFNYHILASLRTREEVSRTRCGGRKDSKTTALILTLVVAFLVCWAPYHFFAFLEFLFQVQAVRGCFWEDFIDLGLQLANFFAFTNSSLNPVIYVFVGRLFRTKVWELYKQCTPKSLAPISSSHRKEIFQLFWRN

Compound	Ki (Bradykinin-1 receptor [1]) [nM]	IC50 (Bradykinin-1 receptor [2]) [nM]
Cc1nc(-c2c(F)cc(Cl)cc2-c2ccc3c(c2)OCC3NC(=O)C2(N)CC2)no1 (racemic) [Example 45, 1-Amino-cyclopropanecarboxylic acid{(rac)-6-[5-chloro-3-fluoro-2-(5-methyl-[1,2,4]oxadiazol-3-yl)-phenyl]-2,3-dihydro-benzofuran-3-yl}-amide]	1530	701
Cc1nc(-c2c(F)cc(Cl)cc2-c2ccc3c(c2)CCC3NC(=O)C2(NC(=O)C(F)(F)F)CC2)no1 (racemic) [Example 4, 1-(2,2,2-Trifluoro-acetylamino)-cyclopropanecarboxylic acid (rac)-{5-[5-chloro-3-fluoro-2-(5-methyl-[1,2,4]oxadiazol-3-yl)-phenyl]-indan-1-yl}-amide]	20.2	2
Cc1nc(-c2c(F)cc(Cl)cc2-c2cnc3c(c2)CCC3NC(=O)C2(NC(=O)c3ccnnc3)CC2)no1 (racemic) [Example 39, Pyridazine-4-carboxylic acid(1-{(rac) 3-[5-chloro-3-fluoro-2-(5-methyl-[1,2,4]oxadiazol-3-yl)-phenyl]-6,7-dihydro-5H-[1]pyrindin-7-ylcarbamoyl}-cyclopropyl)-amide]	7.5	0.6
Cc1nc(-c2c(F)cc(Cl)cc2-c2ccc3c(c2)OCC3NC(=O)C2(NC(=O)c3ccnnc3)CC2)no1 (racemic) [Example 46, Pyridazine-4-carboxylic acid(1-{(rac)-6-[5-chloro-3-fluoro-2-(5-methyl-[1,2,4]oxadiazol-3-yl)-phenyl]-2,3-dihydro-benzofuran-3-ylcarbamoyl}-cyclopropyl)-amide]	19.1	4.7
Cc1nc(-c2c(F)cc(Cl)cc2-c2cc(F)c3c(c2)CCC3NC(=O)C2(NC(=O)c3ccnnc3)CC2)no1 (racemic) [Example 34, Pyridazine-4-carboxylic acid(1-{(rac)-5-[5-chloro-3-fluoro-2-(5-methyl-[1,2,4]oxadiazol-3-yl)-phenyl]-7-fluoro-indan-1-ylcarbamoyl}-cyclopropyl)-amide]	15.1	0.6
Cc1nc(-c2c(F)cc(Cl)cc2-c2ccc3c(c2)OCC3NC(=O)C2(NC(=O)C(F)(F)F)CC2)no1 (racemic) [Example 19, 1-(2,2,2-Trifluoro-acetylamino)-cyclopropanecarboxylic acid{(rac)-6-[5-chloro-3-fluoro-2-(5-methyl-[1,2,4]oxadiazol-3-yl)-phenyl]-2,3-dihydro-benzofuran-3-yl}-amide]	33.3	4.5
Cc1nc(-c2c(F)cc(Cl)cc2-c2ccc3c(c2)CC[C@@H]3NC(=O)C2(N)CC2)no1 [Example 24, 1-Amino-cyclopropanecarboxylic acid{(S)-5-[5-chloro-3-fluoro-2-(5-methyl-[1,2,4]oxadiazol-3-yl)-phenyl]-indan-1-yl}-amide]	36.4	5
Cn1nnc(-c2c(F)cc(Cl)cc2-c2ccc3c(c2)OCCC3NC(=O)C2(NC(=O)C(F)(F)F)CC2)n1 (racemic) [Example 15, 1-(2,2,2-Trifluoro-acetylamino)-cyclopropanecarboxylic acid{(rac)-7-[5-chloro-3-fluoro-2-(2-methyl-2H-tetrazol-5-yl)-phenyl]-chroman-4-yl}-amide]	170	24.6
Cc1nc(-c2c(F)cc(Cl)cc2-c2ccc3c(c2)OCCC3NC(=O)C2(NC(=O)C(F)(F)F)CC2)no1 (racemic) [Example 14, 1-(2,2,2-Trifluoro-acetylamino)-cyclopropanecarboxylic acid{(rac)-7-[5-chloro-3-fluoro-2-(5-methyl-[1,2,4]oxadiazol-3-yl)-phenyl]-chroman-4-yl}-amide]	212	24.8
COC(=O)c1c(Cl)cccc1-c1ccc2c(c1)CCCC2NC(=O)C1(NC(=O)C(F)(F)F)CC1 (racemic) [Example 10, (rac)-2-Chloro-6-(5-{[1-(2,2,2-trifluoro-acetylamino)-cyclopropanecarbonyl]-amino}-5,6,7,8-tetrahydro-naphthalen-2-yl)-benzoic acid methyl ester]	522	118
COC(=O)c1c(Cl)cccc1-c1ccc2c(c1)CC[C@@H]2NC(=O)C1(NC(=O)C(F)(F)F)COC1 [Example 6, 2-Chloro-6-((S)-1-{[3-(2,2,2-trifluoro-acetylamino)-oxetane-3-carbonyl]-amino}-indan-5-yl)-benzoic acid methyl ester]	381	455
Cc1nc(-c2c(F)cc(Cl)cc2-c2cnc3c(c2)CCC3NC(=O)C2(N)CC2)no1 (racemic) [Example 37, 1-Amino-cyclopropanecarboxylic acid{(rac)-3-[5-chloro-3-fluoro-2-(5-methyl-[1,2,4]oxadiazol-3-yl)-phenyl]-6,7-dihydro-5H-[1]pyrindin-7-yl}-amide]	591	301

More lines, in order of falling Ki (Bradykinin-1 receptor [1]), values ahead:

Ki (Bradykinin-1 receptor [1]) [nM]	IC50 (Bradykinin-1 receptor [2]) [nM]	Compound
669	332	Cc1nc(-c2c(F)cc(Cl)cc2-c2ccc3c(c2)CC[C@@H]3NC(=O)C2(NC(=O)OC(C)(C)C)CC2)no1 [Example 23, (1-{(S)-5-[5-Chloro-3-fluoro-2-(5-methyl-[1,2,4]oxadiazol-3-yl)-phenyl]-indan-1-ylcarbamoyl}-cyclopropyl)-carbamic acid tert-butyl ester]
236	82.6	O=C(NC1(C(=O)NC2CCCc3cc(-c4cc(Cl)cc(Cl)c4OCC(F)F)ccc32)CC1)C(F)(F)F (racemic) [Example 9, 1-(2,2,2-Trifluoro-acetylamino)-cyclopropanecarboxylic acid{(rac)-6-[3,5-dichloro-2-(2,2-difluoro-ethoxy)-phenyl]-1,2,3,4-tetrahydro-naphthalen-1-yl}-amide]
211	61.1	Cn1nnc(-c2c(F)cc(Cl)cc2-c2cnc3c(c2)CCC3NC(=O)C2(N)CC2)n1 (racemic) [Example 55, 1-Amino-cyclopropanecarboxylic acid{(rac)-3-[5-chloro-3-fluoro-2-(2-methyl-2H-tetrazol-5-yl)-phenyl]-6,7-dihydro-5H-[1]pyrindin-7-yl}-amide]
41.6	4	Cc1nc(-c2c(F)cc(Cl)cc2-c2ccc3c(c2)CCCC3NC(=O)C2(NC(=O)C(F)(F)F)CC2)no1 (racemic) [Example 11, 1-(2,2,2-Trifluoro-acetylamino)-cyclopropanecarboxylic acid{(rac)-6-[5-chloro-3-fluoro-2-(5-methyl-[1,2,4]oxadiazol-3-yl)-phenyl]-1,2,3,4-tetrahydro-naphthalen-1-yl}-amide]
25.7	4.3	Cc1cc(C(=O)NC2(C(=O)N[C@H]3CCc4cc(-c5cc(Cl)cc(F)c5-c5noc(C)n5)ccc43)COC2)on1 [Example 52, 3-Methyl-isoxazole-5-carboxylic acid (3-{(S)-5-[5-chloro-3-fluoro-2-(5-methyl-[1,2,4]oxadiazol-3-yl)-phenyl]-indan-1-ylcarbamoyl}-oxetan-3-yl)-amide]
17.1	0.5	COc1cc(C(=O)NC2(C(=O)NC3CCc4cc(-c5cc(Cl)cc(F)c5-c5noc(C)n5)cc(F)c43)CC2)on1 (racemic) [Example 35, 3-Methoxy-isoxazole-5-carboxylic acid(1-{(rac)-5-[5-chloro-3-fluoro-2-(5-methyl-[1,2,4]oxadiazol-3-yl)-phenyl]-7-fluoro-indan-1-ylcarbamoyl}-cyclopropyl)-amide]
4.8	0.2	Cn1nnc(-c2c(F)cc(Cl)cc2-c2ccc3c(c2)SCC3NC(=O)C2(NC(=O)c3cncnc3)CC2)n1 (racemic) [Example 63, Pyrimidine-5-carboxylic acid(1-{(rac)-6-[5-chloro-3-fluoro-2-(2-methyl-2H-tetrazol-5-yl)-phenyl]-2,3-dihydro-benzo[b]thiophen-3-ylcarbamoyl}-cyclopropyl)-amide]
4.4	0.2	COc1cc(C(=O)NC2(C(=O)NC3CSc4cc(-c5cc(Cl)cc(F)c5-c5nnn(C)n5)ccc43)CC2)on1 (racemic) [Example 65, 3-Methoxy-isoxazole-5-carboxylic acid(1-{(rac)-6-[5-chloro-3-fluoro-2-(2-methyl-2H-tetrazol-5-yl)-phenyl]-2,3-dihydro-benzo[b]thiophen-3-ylcarbamoyl}-cyclopropyl)-amide]
3.9	0.1	COc1cc(C(=O)NC2(C(=O)N[C@H]3CCc4cc(-c5cc(Cl)cc(F)c5-c5noc(C)n5)ccc43)CC2)on1 [Example 30, 3-Methoxy-isoxazole-5-carboxylic acid(1-{(S)-5-[5-chloro-3-fluoro-2-(5-methyl-[1,2,4]oxadiazol-3-yl)-phenyl]-indan-1-ylcarbamoyl}-cyclopropyl)-amide]
